From PubChem BioAssay (NCI) come the findings set out here.

Where “and” joins values, the source holds several entries; their conditions need not be identical. Identical values can stand only once.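 Exposure lasted 48 hours, with cells grown in 96-well plates and compounds tested at five concentrations. GI50: concentration for 50% inhibition of growth. At the TGI there is no net growth.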

What all share (assay): inhibition of tumour cell growth, NCI panel, 48 h
In test [1] the test system is T-47D breast.
Test [2] relates to U251 CNS.
Test [3] relates to MOLT-4 leukemia.
The subject of test [4] is MDA-MB-435.
For test [5], the system named is SF-539 CNS.
Test [6] has as its system OVCAR-4 ovarian.
For test [7], the system named is PC-3 prostate.
The test system of test [8] is SK-MEL-28 melanoma.
The test system of test [9] is NCI-H23 lung.
For test [10], the system named is HCC-2998 colon.

For the compound `CC(C)c1cnc(-c2cc(Cl)ccc2F)cc1Nc1ccncc1C(=O)NC(CO)CO`, the GI50 in test [1] was 4.5 µM; in test [2] it was 14.9 µM; in test [3], 11.7 µM; in test [4] it was 16.1 µM; in test [5] it was 15 µM; in test [6], 13.7 µM. The GI50 in [7] was 13.8 µM; in test [8] it was 16.9 µM; in test [9] it was 13.9 µM; in test [10], 17.6 µM. In addition, the TGI in test [1] amounted to 34.8 µM; in test [2], 33.9 µM; in test [3], 39.3 µM; in test [4], 30.4 µM; in test [5], 29.9 µM; in [6], 66.3 µM. For the same compound, the TGI in test [7] was found to be 32.6 µM; in [8], 32.8 µM; in test [9], 33.5 µM; in test [10], 33.2 µM.
Regarding `COc1ccc(-c2nc3sccn3c2-c2ccnc(NCCNS(=O)(=O)c3ccc(C(F)(F)F)cc3)n2)cc1`, the GI50 was 1.69 µM in test [1]; 4.45 µM in test [2]; 0.503 µM in test [3]; 1.44 µM in [4]; 2.55 µM in test [5]; 1.99 µM in test [6]. Further, the GI50 in test [7] is 0.303 µM; in [8] it was 3.68 µM; in test [9], 3.56 µM; in test [10], 4.6 µM. Moreover, the TGI is over 100 µM in [1]; over 100 µM in [2]; over 100 µM in [3]; 5.88 µM in test [4]; 7.77 µM in test [5]; 39.6 µM in [6]. In addition, the TGI was 3.34 µM in test [7], 55.5 µM in test [8], 62.3 µM in test [9] and over 100 µM in [10].
As to `CC[C@]12C=CCN3CC[C@]4(C(=C(C(=O)OC)C1)Nc1cc5c(cc14)[C@@H]1[C@H](O5)[C@@H](O)[C@@]4(CC)CC(C(=O)OC)=C5Nc6ccccc6[C@@]56CCN1[C@@H]46)[C@@H]32`, the GI50 in [1] is 0.335 µM; in [2], 0.467 µM and 0.318 µM; in [3], 0.432 µM and 0.338 µM; in [4] it was 0.395 µM and 0.309 µM; in test [5], 0.15 µM and 0.339 µM; in test [6] it was 0.365 µM and 0.397 µM. Besides, the GI50 was 0.435 µM and 0.776 µM in test [7]; 1.07 µM and 1.32 µM in test [8]; 0.577 µM and 0.316 µM in [9]; 0.0292 µM and 0.0366 µM in [10]. Further, the TGI in test [1] was over 100 µM; in [3] it was 25 µM and > 100 µM; in test [4], 25 µM and 10.8 µM; in test [5] it was 3.74 µM and 7.05 µM; in test [6], 13 µM and > 100 µM; in test [7] it was 25 µM and 16.2 µM. Further, the TGI in test [8] is 9.29 µM and 24.2 µM; in [9], 4.51 µM and 1.46 µM; in [10], 2.63 µM and 1.26 µM.
Take `CCc1ccc(Oc2c(-c3ccc(OCCc4cccc(C(F)(F)F)c4)cc3O)n[nH]c2C(F)(F)F)cc1`: the GI50 was 1.43 µM in test [1]; 1.81 µM in [2]; 1.84 µM in test [3]; 3.71 µM in [4]; 7.39 µM in test [5]; 2.22 µM in [6]. The GI50 in test [7] is 3.7 µM; in [8], 5.39 µM; in [9], 1.53 µM; in test [10] it was 8.54 µM. Moreover, the TGI in [1] came out at 4.95 µM; in test [2] it was 6.44 µM; in test [3], 7.05 µM; in test [4] it was 10.3 µM; in test [5], 14 µM; in test [6], 8.05 µM. Besides, the TGI came out at 10.5 µM in [7], 11.4 µM in test [8], 5.89 µM in test [9] and 16 µM in test [10].
Consider `CS(=O)(=O)Nc1cc(-c2ccc3ncc(C#N)c(Nc4ccc(F)c(Cl)c4)c3c2)cnc1Cl`, for which the GI50 in test [1] was 0.0351 µM; in test [2], 0.098 µM; in test [3], 0.0783 µM; in test [4], 0.22 µM; in test [5], 0.109 µM; in test [6], 0.243 µM. Moreover, the GI50 was 0.197 µM in test [7], 0.133 µM in [8], 0.108 µM in test [9] and 0.382 µM in [10]. The TGI was determined as 0.403 µM in test [1]; 1.19 µM in [2]; 0.487 µM in test [3]; 1.85 µM in test [4]; 0.79 µM in test [5]; 10.6 µM in test [7]. For the same compound, the TGI in [8] was 1.47 µM; in test [9] it was 3.91 µM; in [10] it was 1.55 µM.
Take `COc1cccc2nc(Nc3cccc(NC(=O)c4ccc(N5CCN(C)CC5)c(C(F)(F)F)c4)c3)ccc12`: the GI50 was 1 µM in [1]; 0.885 µM in test [2]; 0.876 µM in [3]; 0.878 µM in test [4]; 0.895 µM in test [5]; 1.43 µM in [6]. Moreover, the GI50 in test [7] is 1.26 µM; in [8] it was 0.896 µM; in [9], 2.93 µM; in test [10] it was 0.95 µM. The TGI turned out to be 3.37 µM in test [1]; 1.68 µM in [2]; 2.27 µM in test [3]; 1.73 µM in [4]; 1.66 µM in test [5]; 6.67 µM in [6]. Besides, the TGI in test [7] amounted to 4.51 µM; in [8] it was 1.64 µM; in test [9], 10.6 µM; in test [10], 1.78 µM.
Consider `CC(C)C[C@H](NC(=O)[C@@H](Cc1ccccc1)n1ccc(Nc2ccccc2)cc1=O)B(O)O`, for which the GI50 in test [1] is 0.413 µM; in [2] it was 0.417 µM; in [3], 0.247 µM; in test [4] it was 0.155 µM; in [5], 0.174 µM; in [6] it was 1.18 µM. Further, the GI50 was 2.25 µM in test [7], 0.349 µM in test [8], 0.835 µM in test [9] and 0.353 µM in test [10]. The TGI in test [1] is 3.97 µM; in [2], 12.2 µM; in [3], over 100 µM; in test [4], 0.34 µM; in test [5], 0.484 µM; in [6], 21.3 µM. Besides, the TGI in test [7] turned out to be 19.6 µM; in test [8], 2.98 µM; in test [9], 19.4 µM; in [10], 1.36 µM.
Consider `CNC(=O)/C=C/C1=CN2C(=O)c3ccc(C)c(O)c3NC(OC)C2C1` (configuration not stated), for which the TGI is under 0.0489 µM in test [1]; 1.67 µM in test [2]; over 8.39 µM in test [3]; under 0.0176 µM in [4]; under 0.0176 µM in test [5]; 0.0244 µM in [6]. Further, the TGI in test [7] was 0.447 µM; in test [8], under 0.0131 µM; in [9] it was under 0.0177 µM; in test [10] it was under 0.0173 µM.
As to `O=S(=O)(NCCNc1nccc(-c2c(-c3ccc(F)cc3)nc3sccn23)n1)c1ccc(O)cc1`, the GI50 in test [1] is 2.36 µM; in test [2], 1.36 µM; in [3] it was 3.21 µM; in [4], 1.07 µM; in [5] it was 11.3 µM; in test [6], 3.52 µM. Moreover, the GI50 was 4.51 µM in test [7], 4.4 µM in test [8], 4.96 µM in test [9] and 15.5 µM in [10]. In addition, the TGI was 19.2 µM in test [1]; 23.4 µM in test [2]; 15.7 µM in [3]; 14.8 µM in [4]; 30.7 µM in [5]; 21.6 µM in test [6]. Also, the TGI in test [7] worked out at 37.6 µM; in test [8], 37.8 µM; in [9] it was 28.1 µM; in [10], 51.1 µM.
As to `O=C(/C=C(/C=C/c1cccc2[nH]ccc12)OB(F)F)/C=C/c1cccc2[nH]ccc12`, the GI50 is 0.796 µM in test [1]; 0.469 µM in [2]; 0.385 µM in test [3]; 0.475 µM in [4]; 2.16 µM in [5]; 0.554 µM in test [6]. Moreover, the GI50 in test [7] is 0.815 µM; in [8] it was 1.04 µM; in test [9] it was 0.838 µM; in [10] it was 1.91 µM. The TGI stood at 26.8 µM in test [1]; 1.83 µM in [2]; 3.72 µM in test [3]; 2.55 µM in [4]; 5.86 µM in test [5]; 24.7 µM in test [6]. In addition, the TGI in [7] was 3.41 µM; in test [8], 2.73 µM; in [9], 3.92 µM; in test [10], 3.63 µM.
For `CC(C)n1cc(-c2ccc3c(c2)N(C)CC3)c2c(NS(=O)(=O)c3ccn(C)n3)ccnc21`, the GI50 in test [1] is 29.7 µM; in test [2], 61.9 µM; in test [3] it was 65.7 µM; in test [4], 83 µM; in test [5], 64.4 µM; in test [6] it was 52.5 µM. Moreover, the GI50 is 45.2 µM in [7], 34.5 µM in test [8], 74.6 µM in [9] and over 100 µM in test [10]. Further, the TGI in [1], in [2], in test [3], in test [4], in test [5] and in test [6] was over 100 µM each time. For the same compound, the TGI in [7], in test [8], in test [9] and in [10] was over 100 µM in each case.
Turning to `COc1ccc(C2=C(c3ccccc3)C(=O)N3CCCC3C2)cc1` (configuration not stated), the GI50 in test [1] is over 52.4 µM; in test [2], 0.336 µM; in test [4] it was 5.32 µM; in test [5] it was 3.11 µM; in test [6] it was 55.2 µM; in test [7], 1.48 µM. Further, the values for the GI50 in [8], in test [9] and in [10] were over 62.5 µM, over 32.3 µM and 2.27 µM, respectively. Further, the TGI is over 100 µM in test [1]; over 100 µM in [2]; over 100 µM in test [3]; over 100 µM in test [4]; 98.2 µM in [5]; over 100 µM in [6]. The TGI is over 100 µM in test [7], over 100 µM in test [8], over 100 µM in test [9] and over 55.5 µM in [10].
As for `COc1cc(/C=C2\CC3C4CCC5=CC(=O)CC[C@]5(C)C4CC[C@]3(C)C2=O)ccc1OCCN1CCCC1` (some centres not stated), the GI50 is 3.29 µM in test [1]; 2.86 µM in test [2]; 0.689 µM in test [3]; 2.15 µM in test [4]; 1.78 µM in test [5]; 3.94 µM in test [6]. Further, the GI50 was 2.35 µM in test [7], 2.7 µM in [8], 3.31 µM in [9] and 1.85 µM in test [10]. For the same compound, the TGI came to 9.21 µM in test [1]; 10.1 µM in test [2]; 1.84 µM in test [3]; 4.86 µM in [4]; 3.67 µM in test [5]; 15.1 µM in [6]. Moreover, the TGI in [7] came out at 8.31 µM; in [8], 8.11 µM; in [9], 13.4 µM; in test [10] it was 3.89 µM.
For `CC(C)[C@@]12C[C@@H](OC(=O)COC(=O)c3ccccc3)[C@@](C)(O1)[C@@H]1CC[C@@H](C)[C@H]1[C@@H]2OC(=O)/C=C/c1ccccc1`, the GI50 in test [1] is over 34.6 µM; in test [2], over 100 µM; in test [3], over 100 µM; in test [4], over 100 µM; in test [5] it was over 100 µM; in [6], over 63.1 µM. The GI50 in test [7] was 22.7 µM; in test [8], over 100 µM; in [9], over 100 µM; in [10] it was over 100 µM. For the same compound, the TGI in test [1], in test [2], in [3], in [4], in test [5] and in [6] was over 100 µM in each case. In addition, the TGI in [7], in test [8], in test [9] and in test [10] was over 100 µM each time.
